The inhibition is the share of the control response that was lost under treatment.

The test system of one experiment is Amaranthus retroflexus. The experiment is described as follows: Post-emergence herbicidal activity against Amaranthus retroflexus at 375 g/ha after 10 days. Type of experiment: functional.
Compound `CCOCCOC(=O)/C(C#N)=C(\NCc1ccc(Cl)nc1)SC` showed an Activity of 100%.

Another experiment concerns Amaranthus retroflexus. The experiment is described as follows: Post-emergence herbicidal activity against Amaranthus retroflexus at 1500 g/ha after 10 days. The class given is functional.
Turning to `CC/C(NCc1ccc(OCc2cnc(Cl)s2)cc1)=C(\C#N)C(=O)OCCOC`, the Activity is 0%.

`COCCOC(=O)/C(C#N)=C(/C)NCc1ccc(OCc2cnc(Cl)s2)c(OC)c1` displayed an Activity of 92.2%.

Turning to `COCCOC(=O)/C(C#N)=C(\NCc1ccc(OCc2cnc(Cl)s2)cc1)SC`, the Activity was 71.3%.

With `CCOCCOC(=O)/C(C#N)=C(\NCc1ccc(OCc2cnc(Cl)s2)c(OC)c1)SC`, the Activity is given as 97.4%.

For the compound `COCCOC(=O)/C(C#N)=C(/C)NCc1ccc(OCc2cnc(Cl)s2)cc1`, the Activity was found to be 0%.

The compound `CCOCCOC(=O)/C(C#N)=C(/C)NCc1ccc(OCc2cnc(Cl)s2)c(OC)c1` had an Activity of 89.6%.

`COCCOC(=O)/C(C#N)=C(\NCc1ccc(OCc2cnc(Cl)s2)c(OC)c1)SC` registered an Activity of 89.6%.

For the compound `CCOCCOC(=O)/C(C#N)=C(/C)NCc1ccc(OCc2cnc(Cl)s2)cc1`, the Activity was 32.6%.

Take `CCOCCOC(=O)/C(C#N)=C(\NCc1ccc(Cl)nc1)SC`: the Activity was found to be 100%.

Another experiment deals with Brassica napus. Description: Post-emergence herbicidal activity against Brassica napus (oilseed rape) at 375 g/ha after 10 days. The class given is functional.
`CCOCCOC(=O)/C(C#N)=C(\NCc1ccc(Cl)nc1)SC` had an Activity of 100%.

A further experiment relates to Brassica napus. Description: Pre-emergence herbicidal activity against Brassica napus (oilseed rape) at 1500 g/ha after 10 days. The class given is functional.
As for `CC/C(NCc1ccc(OCc2cnc(Cl)s2)cc1)=C(\C#N)C(=O)OCCOC`, the Activity is 0%.

Compound `COCCOC(=O)/C(C#N)=C(/C)NCc1ccc(OCc2cnc(Cl)s2)c(OC)c1` came in with an Activity of 15%.

In the case of `COCCOC(=O)/C(C#N)=C(\NCc1ccc(OCc2cnc(Cl)s2)cc1)SC`, the Activity was 0%.

Compound `CCOCCOC(=O)/C(C#N)=C(\NCc1ccc(OCc2cnc(Cl)s2)c(OC)c1)SC` yielded an Activity of 10%.

Turning to `COCCOC(=O)/C(C#N)=C(/C)NCc1ccc(OCc2cnc(Cl)s2)cc1`, the Activity came out at 0%.

As to `CCOCCOC(=O)/C(C#N)=C(/C)NCc1ccc(OCc2cnc(Cl)s2)c(OC)c1`, the Activity amounted to 0%.

Regarding `COCCOC(=O)/C(C#N)=C(\NCc1ccc(OCc2cnc(Cl)s2)c(OC)c1)SC`, the Activity is recorded as 0%.

Compound `CCOCCOC(=O)/C(C#N)=C(/C)NCc1ccc(OCc2cnc(Cl)s2)cc1` had an Activity of 0%.

In turn, `CCOCCOC(=O)/C(C#N)=C(\NCc1ccc(Cl)nc1)SC` returned an Activity of 90.7%.

The test system of another experiment is Amaranthus retroflexus. The experiment is described as follows: Pre-emergence herbicidal activity against Amaranthus retroflexus at 1500 g/ha after 10 days. The class given is functional.
For the compound `CC/C(NCc1ccc(OCc2cnc(Cl)s2)cc1)=C(\C#N)C(=O)OCCOC`, the Activity is 0%.

`COCCOC(=O)/C(C#N)=C(/C)NCc1ccc(OCc2cnc(Cl)s2)c(OC)c1` displayed an Activity of 0%.

In turn, `COCCOC(=O)/C(C#N)=C(\NCc1ccc(OCc2cnc(Cl)s2)cc1)SC` returned an Activity of 0%.

`CCOCCOC(=O)/C(C#N)=C(\NCc1ccc(OCc2cnc(Cl)s2)c(OC)c1)SC` had an Activity of 0%.

The compound `COCCOC(=O)/C(C#N)=C(/C)NCc1ccc(OCc2cnc(Cl)s2)cc1` came in with an Activity of 0%.

`CCOCCOC(=O)/C(C#N)=C(/C)NCc1ccc(OCc2cnc(Cl)s2)c(OC)c1` yielded an Activity of 5%.

`COCCOC(=O)/C(C#N)=C(\NCc1ccc(OCc2cnc(Cl)s2)c(OC)c1)SC` gave an Activity of 2.7%.

As to `CCOCCOC(=O)/C(C#N)=C(/C)NCc1ccc(OCc2cnc(Cl)s2)cc1`, the Activity was 0%.

Compound `CCOCCOC(=O)/C(C#N)=C(\NCc1ccc(Cl)nc1)SC` gave an Activity of 35.1%.

Another experiment has as its system Brassica napus. Description: Post-emergence herbicidal activity against Brassica napus (oilseed rape) at 1500 g/ha after 10 days. Type of experiment: functional.
In turn, `CC/C(NCc1ccc(OCc2cnc(Cl)s2)cc1)=C(\C#N)C(=O)OCCOC` came in with an Activity of 100%.

Consider `COCCOC(=O)/C(C#N)=C(/C)NCc1ccc(OCc2cnc(Cl)s2)c(OC)c1`, for which the Activity turned out to be 84.6%.

`COCCOC(=O)/C(C#N)=C(\NCc1ccc(OCc2cnc(Cl)s2)cc1)SC` returned an Activity of 100%.

In turn, `CCOCCOC(=O)/C(C#N)=C(\NCc1ccc(OCc2cnc(Cl)s2)c(OC)c1)SC` had an Activity of 86.3%.

Compound `COCCOC(=O)/C(C#N)=C(/C)NCc1ccc(OCc2cnc(Cl)s2)cc1` had an Activity of 98.5%.

In turn, `CCOCCOC(=O)/C(C#N)=C(/C)NCc1ccc(OCc2cnc(Cl)s2)c(OC)c1` returned an Activity of 94.2%.

In turn, `COCCOC(=O)/C(C#N)=C(\NCc1ccc(OCc2cnc(Cl)s2)c(OC)c1)SC` registered an Activity of 83.6%.

Compound `CCOCCOC(=O)/C(C#N)=C(/C)NCc1ccc(OCc2cnc(Cl)s2)cc1` gave an Activity of 100%.

On to `CCOCCOC(=O)/C(C#N)=C(\NCc1ccc(Cl)nc1)SC`, for which the Activity is on record as 100%.

For the next experiment, the system named is Medicago sativa. The experiment is described as follows: Post-emergence herbicidal activity against Medicago sativa (alfalfa) at 1500 g/ha after 10 days. Type of experiment: functional.
Compound `CC/C(NCc1ccc(OCc2cnc(Cl)s2)cc1)=C(\C#N)C(=O)OCCOC` yielded an Activity of 0%.

The compound `COCCOC(=O)/C(C#N)=C(/C)NCc1ccc(OCc2cnc(Cl)s2)c(OC)c1` returned an Activity of 56.5%.

The compound `COCCOC(=O)/C(C#N)=C(\NCc1ccc(OCc2cnc(Cl)s2)cc1)SC` returned an Activity of 30%.

Compound `CCOCCOC(=O)/C(C#N)=C(\NCc1ccc(OCc2cnc(Cl)s2)c(OC)c1)SC` registered an Activity of 49.2%.

In turn, `COCCOC(=O)/C(C#N)=C(/C)NCc1ccc(OCc2cnc(Cl)s2)cc1` came in with an Activity of 0%.

On to `CCOCCOC(=O)/C(C#N)=C(/C)NCc1ccc(OCc2cnc(Cl)s2)c(OC)c1`, for which the Activity worked out at 30%.

The compound `COCCOC(=O)/C(C#N)=C(\NCc1ccc(OCc2cnc(Cl)s2)c(OC)c1)SC` registered an Activity of 66.1%.

Regarding `CCOCCOC(=O)/C(C#N)=C(/C)NCc1ccc(OCc2cnc(Cl)s2)cc1`, the Activity came out at 0%.

As to `CCOCCOC(=O)/C(C#N)=C(\NCc1ccc(Cl)nc1)SC`, the Activity is on record as 85%.

The test system of a further experiment is Amaranthus retroflexus. Description: Post-emergence herbicidal activity against Amaranthus retroflexus at 750 g/ha after 10 days. Type of experiment: functional.
As for `CCOCCOC(=O)/C(C#N)=C(\NCc1ccc(Cl)nc1)SC`, the Activity amounted to 100%.

For a further experiment, the target named is Photosystem II protein D1 (Spinacia oleracea) (UniProt P69560). Description: Inhibition of photosystem II in Spinacia oleracea (spinach) chloroplast assessed as inhibition of hill reaction at 1 ug/ml relative to control.
With `CC/C(NCc1ccc(OCc2cnc(Cl)s2)cc1)=C(\C#N)C(=O)OCCOC`, the inhibition was found to be 59.6%.

Turning to `COCCOC(=O)/C(C#N)=C(/C)NCc1ccc(OCc2cnc(Cl)s2)c(OC)c1`, the inhibition is 42.7%.

Regarding `COCCOC(=O)/C(C#N)=C(\NCc1ccc(OCc2cnc(Cl)s2)cc1)SC`, the inhibition came to 80.9%.

Consider `CCOCCOC(=O)/C(C#N)=C(\NCc1ccc(OCc2cnc(Cl)s2)c(OC)c1)SC`, for which the inhibition was 87.1%.

Regarding `COCCOC(=O)/C(C#N)=C(/C)NCc1ccc(OCc2cnc(Cl)s2)cc1`, the inhibition came to 65.2%.

Turning to `CCOCCOC(=O)/C(C#N)=C(/C)NCc1ccc(OCc2cnc(Cl)s2)c(OC)c1`, the inhibition was 68.5%.

Regarding `COCCOC(=O)/C(C#N)=C(\NCc1ccc(OCc2cnc(Cl)s2)c(OC)c1)SC`, the inhibition amounted to 61.2%.

On to `CCOCCOC(=O)/C(C#N)=C(/C)NCc1ccc(OCc2cnc(Cl)s2)cc1`, for which the inhibition came to 56.5%.

`CCOCCOC(=O)/C(C#N)=C(\NCc1ccc(Cl)nc1)SC`: the inhibition stood at 75.8%.

Another experiment concerns Brassica napus. Description: Post-emergence herbicidal activity against Brassica napus (oilseed rape) at 750 g/ha after 10 days. The class given is functional.
The compound `CCOCCOC(=O)/C(C#N)=C(\NCc1ccc(Cl)nc1)SC` gave an Activity of 100%.

Another experiment concerns Medicago sativa. The experiment is described as follows: Pre-emergence herbicidal activity against Medicago sativa (alfalfa) at 1500 g/ha after 10 days. Type of experiment: functional.
The compound `CC/C(NCc1ccc(OCc2cnc(Cl)s2)cc1)=C(\C#N)C(=O)OCCOC` came in with an Activity of 0%.

As for `COCCOC(=O)/C(C#N)=C(/C)NCc1ccc(OCc2cnc(Cl)s2)c(OC)c1`, the Activity is on record as 0%.

Consider `COCCOC(=O)/C(C#N)=C(\NCc1ccc(OCc2cnc(Cl)s2)cc1)SC`, for which the Activity turned out to be 0%.

`CCOCCOC(=O)/C(C#N)=C(\NCc1ccc(OCc2cnc(Cl)s2)c(OC)c1)SC` returned an Activity of 10%.

In turn, `COCCOC(=O)/C(C#N)=C(/C)NCc1ccc(OCc2cnc(Cl)s2)cc1` returned an Activity of 0%.

`CCOCCOC(=O)/C(C#N)=C(/C)NCc1ccc(OCc2cnc(Cl)s2)c(OC)c1` gave an Activity of 30.6%.

In the case of `COCCOC(=O)/C(C#N)=C(\NCc1ccc(OCc2cnc(Cl)s2)c(OC)c1)SC`, the Activity is 50.6%.

Regarding `CCOCCOC(=O)/C(C#N)=C(/C)NCc1ccc(OCc2cnc(Cl)s2)cc1`, the Activity is reported as 0%.

`CCOCCOC(=O)/C(C#N)=C(\NCc1ccc(Cl)nc1)SC`: the Activity came to 0%.

A further experiment relates to Brassica napus. Description: Post-emergence herbicidal activity against Brassica napus (oilseed rape) after 10 days. The class given is functional.
In turn, `CC/C(NCc1ccc(OCc2cnc(Cl)s2)cc1)=C(\C#N)C(=O)OCCOC` registered an LD50 of 205.19 g/ha and an LD90 of 640.88 g/ha.

In turn, `CCOCCOC(=O)/C(C#N)=C(\NCc1ccc(OCc2cnc(Cl)s2)c(OC)c1)SC` returned an LD50 of 507.9 g/ha and an LD90 of 2548.33 g/ha.

The compound `CCOCCOC(=O)/C(C#N)=C(\NCc1ccc(Cl)nc1)SC` came in with an LD50 of 8.84 g/ha and an LD90 of 133.77 g/ha.

Source of the values: ChEMBL document CHEMBL3044764, “Synthesis and herbicidal activities of 2-cyano-3-benzylaminoacrylates containing thiazole moiety” (2010).
